Experimental data from patent publication US20210380683A1, “MODULATION OF IRF-4 AND USES THEREOF” (THE METHODIST HOSPITAL SYSTEM, priority 2018, published 2021).

System: Balb/c heart allograft in WT B6 mice
Assay: Balb/c heart allograft survival in WT B6 recipients
Type: in vivo, mouse
Conditions: 3 mg/kg every other day from day 0 to day 12; WT B6 recipients of Balb/c hearts
Method: Murine heterotopic heart transplantation. Heart transplantation in mice was performed by a previously described method (Miyahara et al., 2012; Chen et al., 2007). In brief, hearts from Balb/c donors were transplanted into 8 to 10-week-old male WT B6, Irf4^fl/flCd4-Cre, CD45.1+ congenic, or Rag1−/− recipient mice. Pulmonary artery and aorta of donor heart were cut open, remaining heart vessels were tied off, and heart was removed. […] Anastomosis was made by 11-0 sutures running continuously. 6-0 silk thread was removed, and abdomen was then closed by 5-0 sutures in two layers. Heart graft survival was monitored daily by palpation, and the day of complete cessation of heartbeat was considered as the day of rejection. Recipient mice were i.p. injected with Rat IgG, anti-PD-L1 (10F.9G2), anti-CTLA-4 (9D9), anti-CD4 (GK1.5), anti-CD8 (53-6.7), or anti-CD25 (PC-61.5.3) mAbs obtained from Bio-X-Cell (West Lebanon, N.H.), oral gavaged with trametinib (Selleck Chemicals, Houston, Tex.) or corn oil, or i.v. transferred with WT B6, Irf4^−/−, TEa, TEa Irf4^−/−, or IRF4 re-introduced Irf4^−/− T cells. At various days post-transplant, splenocytes and graft infiltrating cells were obtained for flow cytometry analysis, and allografts were sectioned and stained with hematoxylin and eosin for microscopic evaluation.

CC(=O)Nc1cccc(-n2c(=O)n(C3CC3)c(=O)c3c(Nc4ccc(I)cc4F)n(C)c(=O)c(C)c32)c1 [trametinib]
heart allograft survival (MST): 13.17±0.75 days
